# Test results: PubChem BioAssay (NCI)
#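 Method: 48-hour compound exposure of cells in 96-well plates, five concentrations, linear interpolation of endpoints. At the TGI there is no net growth.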
# Tests used:
# Test in all cases: DTP human tumour cell line panel, 48 h
# 786-0 renal = system: 786-0 renal
# A498 renal = system: A498 renal
# A549 NSCLC = system: A549 NSCLC
# ACHN renal = system: ACHN renal
# BT-549 breast = system: BT-549 breast
# CAKI-1 renal = system: CAKI-1 renal
# CCRF-CEM leukemia = system: CCRF-CEM leukemia
# COLO 205 colon = system: COLO 205 colon
# DU-145 prostate = system: DU-145 prostate
# EKVX NSCLC = system: EKVX NSCLC
# HCC-2998 colon = system: HCC-2998 colon
# HCT-116 colon = system: HCT-116 colon
# HCT-15 colon = system: HCT-15 colon
# HL-60(TB) leukemia = system: HL-60(TB) leukemia
# HOP-62 NSCLC = system: HOP-62 NSCLC
# HOP-92 NSCLC = system: HOP-92 NSCLC
# HS 578T breast = system: HS 578T breast
# HT29 colon = system: HT29 colon
# IGROV1 ovarian = system: IGROV1 ovarian
# K-562 leukemia = system: K-562 leukemia
# KM12 colon = system: KM12 colon
# LOX IMVI melanoma = system: LOX IMVI melanoma
# M14 melanoma = system: M14 melanoma
# MALME-3M melanoma = system: MALME-3M melanoma
# MCF7 breast = system: MCF7 breast
# MDA-MB-231 breast = system: MDA-MB-231 breast
# MDA-MB-435 = system: MDA-MB-435
# MDA-N = system: MDA-N
# MOLT-4 leukemia = system: MOLT-4 leukemia
# NCI-H226 lung = system: NCI-H226 lung
# NCI-H23 lung = system: NCI-H23 lung
# NCI-H460 lung = system: NCI-H460 lung
# NCI-H522 lung = system: NCI-H522 lung
# NCI/ADR-RES ovarian = system: NCI/ADR-RES ovarian
# OVCAR-3 ovarian = system: OVCAR-3 ovarian
# OVCAR-4 ovarian = system: OVCAR-4 ovarian
# OVCAR-5 ovarian = system: OVCAR-5 ovarian
# OVCAR-8 ovarian = system: OVCAR-8 ovarian
# PC-3 prostate = system: PC-3 prostate
# RPMI-8226 leukemia = system: RPMI-8226 leukemia
# RXF 393 renal = system: RXF 393 renal
# SF-268 CNS = system: SF-268 CNS
# SF-295 CNS = system: SF-295 CNS
# SF-539 CNS = system: SF-539 CNS
# SK-MEL-2 melanoma = system: SK-MEL-2 melanoma
# SK-MEL-28 melanoma = system: SK-MEL-28 melanoma
# SK-MEL-5 melanoma = system: SK-MEL-5 melanoma
# SK-OV-3 ovarian = system: SK-OV-3 ovarian
# SN12C renal = system: SN12C renal
# SNB-19 CNS = system: SNB-19 CNS
# SNB-75 CNS = system: SNB-75 CNS
# SR leukemia = system: SR leukemia
# SW-620 colon = system: SW-620 colon
# T-47D breast = system: T-47D breast
# TK-10 renal = system: TK-10 renal
# U251 CNS = system: U251 CNS
# UACC-257 melanoma = system: UACC-257 melanoma
# UACC-62 melanoma = system: UACC-62 melanoma
# UO-31 renal = system: UO-31 renal
compound,measurement,setting,value
C[C@]12CCC(=O)C=C1CC[C@@H]1[C@@H]2[C@@H](O)C[C@@]2(C)[C@H]1CC[C@]2(O)C(=O)CO,TGI,786-0 renal,> 100 µM
same,TGI,A498 renal,> 100 µM
same,TGI,A549 NSCLC,> 100 µM
same,TGI,ACHN renal,> 100 µM
same,TGI,BT-549 breast,> 100 µM
same,TGI,CAKI-1 renal,> 100 µM
same,TGI,CCRF-CEM leukemia,> 100 µM
same,TGI,COLO 205 colon,> 100 µM
same,TGI,DU-145 prostate,> 100 µM
same,TGI,EKVX NSCLC,> 100 µM
same,TGI,HCC-2998 colon,> 100 µM
same,TGI,HCT-116 colon,> 100 µM
same,TGI,HCT-15 colon,> 100 µM
same,TGI,HL-60(TB) leukemia,> 100 µM
same,TGI,HOP-62 NSCLC,> 100 µM
same,TGI,HOP-92 NSCLC,> 100 µM
same,TGI,HS 578T breast,> 100 µM
same,TGI,HT29 colon,> 100 µM
same,TGI,IGROV1 ovarian,> 100 µM
same,TGI,K-562 leukemia,> 100 µM
same,TGI,KM12 colon,> 100 µM
same,TGI,LOX IMVI melanoma,> 100 µM
same,TGI,M14 melanoma,> 100 µM
same,TGI,MALME-3M melanoma,> 100 µM
same,TGI,MCF7 breast,> 100 µM
same,TGI,MDA-MB-231 breast,> 100 µM
same,TGI,MDA-MB-435,> 100 µM
same,TGI,MDA-N,> 100 µM
same,TGI,MOLT-4 leukemia,> 100 µM
same,TGI,NCI-H226 lung,> 100 µM
same,TGI,NCI-H23 lung,> 100 µM
same,TGI,NCI-H460 lung,> 100 µM
same,TGI,NCI-H522 lung,> 100 µM
same,TGI,NCI/ADR-RES ovarian,> 100 µM
same,TGI,OVCAR-3 ovarian,> 100 µM
same,TGI,OVCAR-4 ovarian,> 100 µM
same,TGI,OVCAR-5 ovarian,> 100 µM
same,TGI,OVCAR-8 ovarian,> 100 µM
same,TGI,PC-3 prostate,> 100 µM
same,TGI,RPMI-8226 leukemia,> 100 µM
same,TGI,RXF 393 renal,> 100 µM
same,TGI,SF-268 CNS,> 100 µM
same,TGI,SF-295 CNS,> 100 µM
same,TGI,SF-539 CNS,> 100 µM
same,TGI,SK-MEL-2 melanoma,> 100 µM
same,TGI,SK-MEL-28 melanoma,> 100 µM
same,TGI,SK-MEL-5 melanoma,> 100 µM
same,TGI,SK-OV-3 ovarian,> 100 µM
same,TGI,SN12C renal,> 100 µM
same,TGI,SNB-19 CNS,> 100 µM
same,TGI,SNB-75 CNS,> 100 µM
same,TGI,SR leukemia,> 100 µM
same,TGI,SW-620 colon,> 100 µM
same,TGI,T-47D breast,> 100 µM
same,TGI,TK-10 renal,> 100 µM
same,TGI,U251 CNS,> 100 µM
same,TGI,UACC-257 melanoma,> 100 µM
same,TGI,UACC-62 melanoma,> 100 µM
same,TGI,UO-31 renal,> 100 µM
N#Cc1c(-c2ccccc2)c(N=Nc2ccc(F)cc2)c(=O)n2c1[nH]c1ccccc12,TGI,786-0 renal,14.3 µM
same,TGI,A498 renal,41 µM
same,TGI,A549 NSCLC,19.3 µM
same,TGI,ACHN renal,> 64.6 µM
same,TGI,BT-549 breast,89.2 µM
same,TGI,CAKI-1 renal,16.4 µM
same,TGI,CCRF-CEM leukemia,7.57 µM
same,TGI,COLO 205 colon,13 µM
same,TGI,DU-145 prostate,> 100 µM
same,TGI,EKVX NSCLC,41.3 µM
same,TGI,HCC-2998 colon,> 100 µM
same,TGI,HCT-116 colon,14.2 µM
same,TGI,HCT-15 colon,> 100 µM
same,TGI,HL-60(TB) leukemia,3.68 µM
same,TGI,HOP-62 NSCLC,29.3 µM
same,TGI,HOP-92 NSCLC,14.2 µM
same,TGI,HS 578T breast,31.4 µM
same,TGI,HT29 colon,12 µM
same,TGI,IGROV1 ovarian,35.7 µM
same,TGI,K-562 leukemia,17.9 µM
same,TGI,KM12 colon,65 µM
same,TGI,LOX IMVI melanoma,> 100 µM
same,TGI,M14 melanoma,27.3 µM
same,TGI,MALME-3M melanoma,72.5 µM
same,TGI,MCF7 breast,> 100 µM
same,TGI,MDA-MB-231 breast,> 50.9 µM
same,TGI,MDA-MB-435,> 100 µM
same,TGI,MDA-N,52.9 µM
same,TGI,MOLT-4 leukemia,7.78 µM
same,TGI,NCI-H226 lung,39.1 µM
same,TGI,NCI-H23 lung,> 75.7 µM
same,TGI,NCI-H460 lung,19.9 µM
same,TGI,NCI-H522 lung,14.7 µM
same,TGI,NCI/ADR-RES ovarian,20.6 µM
same,TGI,OVCAR-3 ovarian,8.57 µM
same,TGI,OVCAR-4 ovarian,31.5 µM
same,TGI,OVCAR-5 ovarian,50.5 µM
same,TGI,OVCAR-8 ovarian,24 µM
same,TGI,PC-3 prostate,> 35.2 µM
same,TGI,RPMI-8226 leukemia,12.9 µM
same,TGI,RXF 393 renal,44.6 µM
same,TGI,SF-268 CNS,39.5 µM
same,TGI,SF-295 CNS,24.8 µM
same,TGI,SF-539 CNS,32.2 µM
same,TGI,SK-MEL-2 melanoma,> 100 µM
same,TGI,SK-MEL-28 melanoma,> 100 µM
same,TGI,SK-MEL-5 melanoma,4.94 µM
same,TGI,SK-OV-3 ovarian,31.5 µM
same,TGI,SN12C renal,10.2 µM
same,TGI,SNB-19 CNS,33.5 µM
same,TGI,SNB-75 CNS,39.4 µM
same,TGI,SR leukemia,55.8 µM
same,TGI,SW-620 colon,> 100 µM
same,TGI,T-47D breast,40.8 µM
same,TGI,TK-10 renal,25.8 µM
same,TGI,U251 CNS,18.1 µM
same,TGI,UACC-257 melanoma,> 100 µM
same,TGI,UACC-62 melanoma,26.3 µM
same,TGI,UO-31 renal,20.6 µM
